# Measured values taken from US12295936B2, “Immunomodulating urea azalides” (Zoetis Services LLC, priority 2020, dated 2025).
# System: BRD pathogens, M. haemolytica and P. multocida
# Assay: MIC screening panel of BRD pathogens (antibacterial / non-antibacterial)
# Settings: read-out: antibacterial / non-antibacterial (MIC for the BRD pathogens)
row,SMILES,MIC [µg/mL]
1,"CC[C@H]1OC(=O)[C@H](C)[C@@H](O[C@H]2C[C@@](C)(OC)[C@](O)(CN(CCN3CCOCC3)C(=O)NC3CC3)[C@H](C)O2)[C@H](C)[C@@H](O[C@@H]2O[C@H](C)C[C@H](N(C)C(=O)NC3CC3)[C@H]2O)[C@](C)(O)C[C@@H](C)CN[C@H](C)[C@@H](O)[C@]1(C)O [Example H-1, 3-cyclopropyl-1-((2S,3R,4S,6R)-2-(((2R,3S,4R,5R,8R,10R,11R,12S,13S,14R)-13-(((2R,4R,5S,6S)-5-((3-cyclopropyl-1-(2-morpholinoethyl)ureido)methyl)-5-hydroxy-4-methoxy-4,6-dimethyltetrahydro-2H-pyran-2-yl)oxy)-2-ethyl-3,4,10-trihydroxy-3,5,8,10,12,14-hexamethyl-15-oxo-1-oxa-6-azacyclopentadecan-11-yl)oxy)-3-hydroxy-6-methyltetrahydro-2H-pyran-4-yl)-1-methylurea]",> 64
2,"CC[C@H]1OC(=O)[C@H](C)[C@@H](O[C@H]2C[C@@](C)(OC)[C@](O)(CN(C)C)[C@H](C)O2)[C@H](C)[C@@H](O[C@@H]2O[C@H](C)C[C@H](N(C)C(=O)Nc3ccccc3)[C@H]2O)[C@](C)(O)C[C@@H](C)CN[C@H](C)[C@@H](O)[C@]1(C)O [Example H-2, 1-((2S,3R,4S,6R)-2-(((2R,3S,4R,5R,8R,10R,11R,12S,13S,14R)-13-(((2R,4R,5S,6S)-5-((dimethylamino)methyl)-5-hydroxy-4-methoxy-4,6-dimethyltetrahydro-2H-pyran-2-yl)oxy)-2-ethyl-3,4,10-trihydroxy-3,5,8,10,12,14-hexamethyl-15-oxo-1-oxa-6-azacyclopentadecan-11-yl)oxy)-3-hydroxy-6-methyltetrahydro-2H-pyran-4-yl)-1-methyl-3-phenylurea]",> 64
3,"CC[C@H]1OC(=O)[C@H](C)[C@@H](O[C@H]2C[C@@](C)(OC)[C@](O)(CN(CC)CC)[C@H](C)O2)[C@H](C)[C@@H](O[C@@H]2O[C@H](C)C[C@H](N(C)C(=O)Nc3ccccc3)[C@H]2O)[C@](C)(O)C[C@@H](C)CN[C@H](C)[C@@H](O)[C@]1(C)O [Example H-4, 1-((2S,3R,4S,6R)-2-(((2R,3S,4R,5R,8R,10R,11R,12S,13S,14R)-13-(((2R,4R,5S,6S)-5-((diethylamino)methyl)-5-hydroxy-4-methoxy-4,6-dimethyltetrahydro-2H-pyran-2-yl)oxy)-2-ethyl-3,4,10-trihydroxy-3,5,8,10,12,14-hexamethyl-15-oxo-1-oxa-6-azacyclopentadecan-11-yl)oxy)-3-hydroxy-6-methyltetrahydro-2H-pyran-4-yl)-1-methyl-3-phenylurea]",> 64
4,"CCCNC[C@]1(O)[C@H](C)O[C@@H](O[C@H]2[C@H](C)[C@@H](O[C@@H]3O[C@H](C)C[C@H](N(C)C(=O)NCCN(C)C)[C@H]3O)[C@](C)(O)C[C@@H](C)CN[C@H](C)[C@@H](O)[C@](C)(O)[C@@H](CC)OC(=O)[C@@H]2C)C[C@@]1(C)OC [Example H-6, 3-(2-(dimethylamino)ethyl)-1-((2S,3R,4S,6R)-2-(((2R,3S,4R,5R,8R,10R,11R,12S,13S,14R)-2-ethyl-3,4,10-trihydroxy-13-(((2R,4R,5S,6S)-5-hydroxy-4-methoxy-4,6-dimethyl-5-((propylamino)methyl)tetrahydro-2H-pyran-2-yl)oxy)-3,5,8,10,12,14-hexamethyl-15-oxo-1-oxa-6-azacyclopentadecan-11-yl)oxy)-3-hydroxy-6-methyltetrahydro-2H-pyran-4-yl)-1-methylurea]",> 64
5,"CCCN(C[C@]1(O)[C@H](C)O[C@@H](O[C@H]2[C@H](C)[C@@H](O[C@@H]3O[C@H](C)C[C@H](N(C)C(=O)Nc4ccc(F)cc4)[C@H]3O)[C@](C)(O)C[C@@H](C)CN[C@H](C)[C@@H](O)[C@](C)(O)[C@@H](CC)OC(=O)[C@@H]2C)C[C@@]1(C)OC)C(=O)Nc1ccc(F)cc1 [Example H-10, 1-((2S,3R,4S,6R)-2-(((2R,3S,4R,5R,8R,10R,11R,12S,13S,14R)-2-ethyl-13-(((2R,4R,5S,6S)-5-((3-(4-fluorophenyl)-1-propylureido)methyl)-5-hydroxy-4-methoxy-4,6-dimethyltetrahydro-2H-pyran-2-yl)oxy)-3,4,10-trihydroxy-3,5,8,10,12,14-hexamethyl-15-oxo-1-oxa-6-azacyclopentadecan-11-yl)oxy)-3-hydroxy-6-methyltetrahydro-2H-pyran-4-yl)-3-(4-fluorophenyl)-1-methylurea]",> 64
6,"CCCN(C[C@]1(O)[C@H](C)O[C@@H](O[C@H]2[C@H](C)[C@@H](O[C@@H]3O[C@H](C)C[C@H](N(C)C(=O)Nc4ccc(C(F)(F)F)cc4)[C@H]3O)[C@](C)(O)C[C@@H](C)CN[C@H](C)[C@@H](O)[C@](C)(O)[C@@H](CC)OC(=O)[C@@H]2C)C[C@@]1(C)OC)C(=O)Nc1ccc(C(F)(F)F)cc1 [Example H-12, 1-((2S,3R,4S,6R)-2-(((2R,3S,4R,5R,8R,10R,11R,12S,13S,14R)-2-ethyl-3,4,10-trihydroxy-13-(((2R,4R,5S,6S)-5-hydroxy-4-methoxy-4,6-dimethyl-5-((1-propyl-3-(4-(trifluoromethyl)phenyl)ureido)methyl)tetrahydro-2H-pyran-2-yl)oxy)-3,5,8,10,12,14-hexamethyl-15-oxo-1-oxa-6-azacyclopentadecan-11-yl)oxy)-3-hydroxy-6-methyltetrahydro-2H-pyran-4-yl)-1-methyl-3-(4-(trifluoromethyl)phenyl)urea]",> 64
7,"CCCNC[C@]1(O)[C@H](C)O[C@@H](O[C@H]2[C@H](C)[C@@H](O[C@@H]3O[C@H](C)C[C@H](N(C)C(=O)N(CC)c4ccccc4)[C@H]3O)[C@](C)(O)C[C@@H](C)CN[C@H](C)[C@@H](O)[C@](C)(O)[C@@H](CC)OC(=O)[C@@H]2C)C[C@@]1(C)OC [Example H-16, 1-ethyl-3-((2S,3R,4S,6R)-2-(((2R,3S,4R,5R,8R,10R,11R,12S,13S,14R)-2-ethyl-3,4,10-trihydroxy-13-(((2R,4R,5S,6S)-5-hydroxy-4-methoxy-4,6-dimethyl-5-((propylamino)methyl)tetrahydro-2H-pyran-2-yl)oxy)-3,5,8,10,12,14-hexamethyl-15-oxo-1-oxa-6-azacyclopentadecan-11-yl)oxy)-3-hydroxy-6-methyltetrahydro-2H-pyran-4-yl)-3-methyl-1-phenylurea]",> 64
8,"CCCNC[C@]1(O)[C@H](C)O[C@@H](O[C@H]2[C@H](C)[C@@H](O[C@@H]3O[C@H](C)C[C@H](N(C)C(=O)N(c4ccccc4)C(C)C)[C@H]3O)[C@](C)(O)C[C@@H](C)CN[C@H](C)[C@@H](O)[C@](C)(O)[C@@H](CC)OC(=O)[C@@H]2C)C[C@@]1(C)OC [Example H-17, 1-((2S,3R,4S,6R)-2-(((2R,3S,4R,5R,8R,10R,11R,12S,13S,14R)-2-ethyl-3,4,10-trihydroxy-13-(((2R,4R,5S,6S)-5-hydroxy-4-methoxy-4,6-dimethyl-5-((propylamino)methyl)tetrahydro-2H-pyran-2-yl)oxy)-3,5,8,10,12,14-hexamethyl-15-oxo-1-oxa-6-azacyclopentadecan-11-yl)oxy)-3-hydroxy-6-methyltetrahydro-2H-pyran-4-yl)-3-isopropyl-1-methyl-3-phenylurea]",> 64
9,"CC[C@H]1OC(=O)[C@H](C)[C@@H](O[C@H]2C[C@@](C)(OC)[C@](O)(CNCCS(C)(=O)=O)[C@H](C)O2)[C@H](C)[C@@H](O[C@@H]2O[C@H](C)C[C@H](N(C)C(=O)N(C)c3ccccc3)[C@H]2O)[C@](C)(O)C[C@@H](C)CN[C@H](C)[C@@H](O)[C@]1(C)O [Example H-21, 1-((2S,3R,4S,6R)-2-(((2R,3S,4R,5R,8R,10R,11R,12S,13S,14R)-2-ethyl-3,4,10-trihydroxy-13-(((2R,4R,5S,6S)-5-hydroxy-4-methoxy-4,6-dimethyl-5-(((2-(methylsulfonyl)ethyl)amino)methyl)tetrahydro-2H-pyran-2-yl)oxy)-3,5,8,10,12,14-hexamethyl-15-oxo-1-oxa-6-azacyclopentadecan-11-yl)oxy)-3-hydroxy-6-methyltetrahydro-2H-pyran-4-yl)-1,3-dimethyl-3-phenylurea]",> 64
10,"CC[C@H]1OC(=O)[C@H](C)[C@@H](O[C@H]2C[C@@](C)(OC)[C@](O)(CNCCC3CC3)[C@H](C)O2)[C@H](C)[C@@H](O[C@@H]2O[C@H](C)C[C@H](N(C)C(=O)N(C)c3ccccc3)[C@H]2O)[C@](C)(O)C[C@@H](C)CN[C@H](C)[C@@H](O)[C@]1(C)O [Example H-34, 1-((2S,3R,4S,6R)-2-(((2R,3S,4R,5R,8R,10R,11R,12S,13S,14R)-13-(((2R,4R,5S,6S)-5-(((2-cyclopropylethyl)amino)methyl)-5-hydroxy-4-methoxy-4,6-dimethyltetrahydro-2H-pyran-2-yl)oxy)-2-ethyl-3,4,10-trihydroxy-3,5,8,10,12,14-hexamethyl-15-oxo-1-oxa-6-azacyclopentadecan-11-yl)oxy)-3-hydroxy-6-methyltetrahydro-2H-pyran-4-yl)-1,3-dimethyl-3-phenylurea]",> 64
11,"CC[C@H]1OC(=O)[C@H](C)[C@@H](O[C@H]2C[C@@](C)(OC)[C@](O)(CNCCCN3CCCC3=O)[C@H](C)O2)[C@H](C)[C@@H](O[C@@H]2O[C@H](C)C[C@H](N(C)C(=O)N(C)c3ccccc3)[C@H]2O)[C@](C)(O)C[C@@H](C)CN[C@H](C)[C@@H](O)[C@]1(C)O [Example H-35, 1-((2S,3R,4S,6R)-2-(((2R,3S,4R,5R,8R,10R,11R,12S,13S,14R)-2-ethyl-3,4,10-trihydroxy-13-(((2R,4R,5S,6S)-5-hydroxy-4-methoxy-4,6-dimethyl-5-(((3-(2-oxopyrrolidin-1-yl)propyl)amino)methyl)tetrahydro-2H-pyran-2-yl)oxy)-3,5,8,10,12,14-hexamethyl-15-oxo-1-oxa-6-azacyclopentadecan-11-yl)oxy)-3-hydroxy-6-methyltetrahydro-2H-pyran-4-yl)-1,3-dimethyl-3-phenylurea]",> 64
